For orientation: IC50 means the concentration that inhibits the measured activity by half. As usually defined, the Km is the concentration of substrate that gives half-maximal velocity.

This is an account of results in patent publication US7332317B2, “Phosphodiesterase and genes thereof” (Tanabe Seiyaku Co., Ltd., priority 1999, dated 2008).

The target of experiment [1] is T1, human PDE11A2 (Homo sapiens, UniProt Q9HCR9, DUP921-921). Nature of the experiment: Inhibition of human PDE11A2 activity by known PDE inhibitors (radio-labeled nucleotide method).
Protocol: (§1) Incidentally, measurement of PDE activity was done according to a radio-labeled nucleotide method. […] After carrying out a reaction by keeping a temperature at 37° C. for 30 minutes, reaction was terminated by boiling the reaction mixture for 2 minutes, and 100 μl of 1 mg/ml of snake venom (Crotalus atrox snake venom) was further added thereto and the temperature was kept at 37° C. for 30 minutes. Subsequently, 500 μl of methanol was added thereto, and the reaction mixture was applied to Dowex column (1×8-400). Scintillation cocktail was added to each of the eluates, and radioactivity was measured.
Experiment [2] concerns the target T2, human PDE11A1 (Homo sapiens, UniProt Q9HCR9, DUP921-921/R184Q). Nature of the experiment: Inhibition of human PDE11A1 activity by known PDE inhibitors (radio-labeled nucleotide method).
Protocol: as §1
For experiment [3], the target named is T1, human PDE11A2. Nature of the experiment: Kinetic analysis of cAMP/cGMP hydrolysis by human PDE11A2 (Lineweaver-Burk plot). The arrangement: inserted into a BamHI-XhoI site of an expression vector, pHis, to obtain a vector plasmid pHis-PDE11T for PDE11A2 expression; made in house; host or cells: COS-7 cells. The class given is biochemical. The conditions noted are these: labelled substance as substrate, 0.1 to 10 μM.

Experiment [4] deals with human PDE11. In words: Influence of cGMP on cAMP hydrolysis activity and of cAMP on cGMP hydrolysis activity. The class given is biochemical. The conditions noted are these: 3.5 μM unlabeled cAMP; 0.01-100 μM cGMP added; PDE11A1 and PDE11A2, FIG. 3.
For experiment [5], the target named is T2, human PDE11A1. Nature of the experiment: Kinetic analysis of cAMP/cGMP hydrolysis by human PDE11A1 (Lineweaver-Burk plot). The conditions noted are these: labelled substance as substrate, 0.1 to 10 μM. The arrangement: inserted into a BamHI-XhoI site of an expression vector, pcDNA4/HisMaxC; made in house; host or cells: COS-7 cells. The experiment is classed as biochemical.

[6] abbreviates: read-out: IC50 value for human PDE11A2 activity, effect on cGMP hydrolysis activity, substrate 1.3 μM unlabeled cGMP, inhibitor 0-100 μM, recombinant enzyme from COS-7 cells.
Where [7] appears, read: read-out: IC50 value for human PDE11A1 activity, effect on cGMP hydrolysis activity, substrate 1.3 μM unlabeled cGMP, inhibitor 0-100 μM, recombinant enzyme from COS-7 cells.

Each structure is given as a SMILES string. “And” between values parts separate entries of the source, which are not always exact repeats. Identical values can stand only once. Like-named read-outs stand apart in the source and are kept apart here.

T2 sequence (Q9HCR9 with tags, fused parts or gaps R184Q/DUP921-921): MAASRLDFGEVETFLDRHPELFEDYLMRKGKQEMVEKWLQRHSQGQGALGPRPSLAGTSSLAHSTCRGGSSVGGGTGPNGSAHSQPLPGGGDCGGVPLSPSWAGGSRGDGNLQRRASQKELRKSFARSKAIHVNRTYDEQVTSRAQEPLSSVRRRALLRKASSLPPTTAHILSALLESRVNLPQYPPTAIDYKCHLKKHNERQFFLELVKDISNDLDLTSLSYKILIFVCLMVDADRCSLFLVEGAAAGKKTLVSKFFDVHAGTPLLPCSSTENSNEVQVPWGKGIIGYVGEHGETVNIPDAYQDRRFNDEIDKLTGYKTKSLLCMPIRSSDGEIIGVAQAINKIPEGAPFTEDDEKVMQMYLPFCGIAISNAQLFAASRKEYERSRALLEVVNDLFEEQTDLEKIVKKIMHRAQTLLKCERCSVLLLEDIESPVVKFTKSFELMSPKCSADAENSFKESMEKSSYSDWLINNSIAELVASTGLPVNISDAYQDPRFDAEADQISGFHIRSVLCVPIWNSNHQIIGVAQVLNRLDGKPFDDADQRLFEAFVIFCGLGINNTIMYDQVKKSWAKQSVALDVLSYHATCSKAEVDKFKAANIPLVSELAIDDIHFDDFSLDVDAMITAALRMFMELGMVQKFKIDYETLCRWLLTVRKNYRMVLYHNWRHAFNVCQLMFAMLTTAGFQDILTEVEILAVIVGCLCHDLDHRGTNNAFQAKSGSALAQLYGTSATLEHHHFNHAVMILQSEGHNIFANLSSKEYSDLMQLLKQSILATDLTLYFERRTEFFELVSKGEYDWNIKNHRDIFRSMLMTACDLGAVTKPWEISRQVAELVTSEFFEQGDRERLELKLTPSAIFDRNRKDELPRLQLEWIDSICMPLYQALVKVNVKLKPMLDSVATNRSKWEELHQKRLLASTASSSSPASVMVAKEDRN
T1 sequence (Q9HCR9 with tags, fused parts or gaps isoform Q9HCR9-2 DUP671-671): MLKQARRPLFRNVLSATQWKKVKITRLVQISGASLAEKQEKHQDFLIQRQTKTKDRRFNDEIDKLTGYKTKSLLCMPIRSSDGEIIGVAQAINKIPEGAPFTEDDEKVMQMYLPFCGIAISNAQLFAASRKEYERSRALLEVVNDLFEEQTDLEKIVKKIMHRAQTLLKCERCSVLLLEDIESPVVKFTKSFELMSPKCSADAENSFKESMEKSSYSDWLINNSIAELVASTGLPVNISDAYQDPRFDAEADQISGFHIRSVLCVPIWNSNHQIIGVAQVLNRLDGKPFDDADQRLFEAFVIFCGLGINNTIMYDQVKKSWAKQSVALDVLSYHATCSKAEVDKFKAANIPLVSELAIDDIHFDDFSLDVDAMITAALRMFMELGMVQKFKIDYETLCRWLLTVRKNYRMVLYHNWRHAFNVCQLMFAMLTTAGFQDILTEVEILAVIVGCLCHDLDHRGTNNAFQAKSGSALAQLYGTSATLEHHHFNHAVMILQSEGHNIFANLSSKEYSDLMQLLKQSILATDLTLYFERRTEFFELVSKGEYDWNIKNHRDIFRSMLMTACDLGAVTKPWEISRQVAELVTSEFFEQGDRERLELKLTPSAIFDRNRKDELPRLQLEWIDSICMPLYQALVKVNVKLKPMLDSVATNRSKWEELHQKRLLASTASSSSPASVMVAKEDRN

`Cc1[nH]c(=O)c(C#N)cc1-c1ccncc1` [Milrinone]: the IC50 in experiment [1], in experiment [1] (setting [6]), in experiment [2] and in experiment [2] (setting [7]) was more than 100 µM throughout.
For `COc1ccc(C2CNC(=O)C2)cc1OC1CCCC1` (centres unmarked) [Rolipram], the half-inhibitory concentration (IC50) in experiment [1], in experiment [1] (setting [6]), in experiment [2] and in experiment [2] (setting [7]) was more than 100 µM in each case.
Take `Nc1nc2c(ncn2[C@@H]2O[C@@H]3COP(=O)(O)O[C@H]3[C@H]2O)c(=O)[nH]1` [cGMP]: in experiment [3], the Km amounted to 1.47 ± 0.115 µM and the “Vmax of human PDE11A2” value turned out to be 4.02±0.214 pmol/min/μg protein. Also, the “cAMP hydrolysis activity (relative value %) on addition of cGMP” value in experiment [4] is given as “lowered depending on a concentration of cGMP added”. Further, in experiment [5], the Km stood at 1.43 ± 0.109 µM and the “Vmax of human PDE11A1” value is recorded as 121±8.08 pmol/min/μg of protein.
Turning to `CN1C(=O)c2[nH]c(Cc3ccc(C(F)(F)F)cc3)nc2N2C1=N[C@@H]1CCC[C@@H]12` (single isomer, unassigned) [SCH51866, (+)-cis-5-methyl-2-[4-(trifluoromethyl)benzyl]-3,4,5,6a,7,8,9,9a-octahydrocyclopent[4,5]imidazo-[2,1-b]purin-4-one], the IC50 is 11 µM and 8.6 µM in experiment [1]; 22 µM and 25 µM in experiment [2].
For the molecule `O=C(O)C1CCN(c2nc(NCc3ccc4c(c3)OCO4)c3cc(Cl)ccc3n2)CC1` [E4021, sodium 1-[6-chloro-4-(3,4-methylenedioxybenzyl)aminoquinazolin-2-yl]pyperidine-4-carboxylate], the IC50 is 0.88 µM and 0.66 µM in experiment [1]; 1.8 ± 0.33 µM in experiment [2].
With `CCOC(=O)C1=C[C@]2(CC)CCCN3CCc4c(n1c1ccccc41)[C@@H]32` [Vinpocetine], the IC50 is 49 µM and 68 µM in experiment [1]; more than 100 µM in experiment [2]; more than 100 µM in experiment [2] (setting [7]).
As for `CC(C)Cn1c(=O)n(C)c(=O)c2[nH]cnc21` [IBMX, 3-isobutyl-1-methylxanthine], the IC50 is 30 µM and 38 µM in experiment [1]; 65 µM and 81 µM in experiment [2].
In the case of `Nc1ncnc2c1ncn2[C@@H]1O[C@@H]2COP(=O)(O)O[C@H]2[C@H]1O` [cAMP], in experiment [3], the “Vmax of human PDE11A2” value is reported as 9.63±1.88 pmol/min/μg protein.
